Reference: ChEMBL document CHEMBL1201862, “PubChem BioAssay data set” (2004)
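The compound was tested at five concentrations on cells cultured in 96-well plates, with a 48-hour exposure period. GI50 = concentration required for 50% inhibition of growth.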 Calls of active or inactive are those of the source. Rule as the data show it: active = GI50 up to about 1.1 µM and inactive = higher.

Key:
Test in all cases: growth of human tumour cells (NCI), 48 h
[1] = test system: A498
[2] = test system: A549
[3] = test system: CCRF-CEM
[4] = test system: EKVX
[5] = test system: HCC 2998
[6] = test system: HCT-116
[7] = test system: HL-60
[8] = test system: KM12
[9] = test system: M14
[10] = test system: OVCAR-3
[11] = test system: RXF 393
[12] = test system: SK-MEL-5
[13] = test system: SN12C
[14] = test system: SNB-75
[15] = test system: UACC-257
[16] = test system: UACC-62
[17] = test system: OVCAR-5
[18] = test system: RPMI-8226

Structure (SMILES): CSc1nc2c(nc(N)n2C2OCC(O)C(O)C2O)c(=O)n1C (stereo not drawn)
- GI50 [1]: > 100 µM (inactive)
- GI50 [2]: > 100 µM (inactive)
- GI50 [3]: > 100 µM (inactive)
- GI50 [4]: > 100 µM (inactive)
- GI50 [5]: > 100 µM (inactive)
- GI50 [6]: > 100 µM (inactive)
- GI50 [7]: > 100 µM (inactive)
- GI50 [8]: > 100 µM (inactive)
- GI50 [9]: > 100 µM (inactive)
- GI50 [10]: > 100 µM (inactive)
- GI50 [11]: > 100 µM (inactive)
- GI50 [12]: > 100 µM (inactive)
- GI50 [13]: > 100 µM (inactive)
- GI50 [14]: > 100 µM (inactive)
- GI50 [15]: > 100 µM (inactive)
- GI50 [16]: > 100 µM (inactive)

Structure (SMILES): CCOC(=O)C1Nc2ccccc2[C@H]2OCC[C@@H]12 (stereo partly drawn)
- GI50 [1]: > 100 µM (inactive)
- GI50 [2]: > 100 µM (inactive)
- GI50 [3]: > 100 µM (inactive)
- GI50 [4]: > 100 µM (inactive)
- GI50 [5]: > 100 µM (inactive)
- GI50 [6]: > 100 µM (inactive)
- GI50 [7]: > 100 µM (inactive)
- GI50 [8]: > 100 µM (inactive)
- GI50 [9]: > 100 µM (inactive)
- GI50 [10]: > 100 µM (inactive)
- GI50 [17]: > 100 µM (inactive)
- GI50 [11]: > 100 µM (inactive)
- GI50 [12]: > 100 µM (inactive)
- GI50 [13]: > 100 µM (inactive)
- GI50 [14]: > 100 µM (inactive)
- GI50 [15]: > 100 µM (inactive)
- GI50 [16]: > 100 µM (inactive)

Structure (SMILES): CCCCCCCCCCC/C(=N/O)c1ccc(O)c2ncccc12
- GI50 [2]: 5.69 µM (inactive)
- GI50 [4]: 3.52 µM (inactive)
- GI50 [5]: 5.28 µM (inactive)
- GI50 [6]: 6.64 µM (inactive)
- GI50 [7]: 0.19 µM (active)
- GI50 [8]: 6.41 µM (inactive)
- GI50 [9]: 1.76 µM (inactive)
- GI50 [17]: 3.15 µM (inactive)
- GI50 [11]: 7.67 µM (inactive)
- GI50 [12]: 1.85 µM (inactive)
- GI50 [14]: 2.52 µM (inactive)
- GI50 [15]: 3.25 µM (inactive)

Structure (SMILES): O=C1CNNC(Cn2nc(-c3ccccc3)c3ccccc3c2=O)=N1
- GI50 [1]: > 100 µM (inactive)
- GI50 [2]: > 100 µM (inactive)
- GI50 [3]: > 100 µM (inactive)
- GI50 [5]: > 100 µM (inactive)
- GI50 [6]: > 100 µM (inactive)
- GI50 [7]: > 100 µM (inactive)
- GI50 [8]: > 100 µM (inactive)
- GI50 [9]: > 100 µM (inactive)
- GI50 [10]: > 100 µM (inactive)
- GI50 [17]: > 100 µM (inactive)
- GI50 [18]: > 100 µM (inactive)
- GI50 [12]: > 100 µM (inactive)
- GI50 [13]: > 100 µM (inactive)
- GI50 [14]: 83 µM (inactive)
- GI50 [15]: > 100 µM (inactive)
- GI50 [16]: > 100 µM (inactive)

Structure (SMILES): Cc1ccc(S(=O)(=O)c2c(N)c3nccn3c3nc4ccccc4nc23)cc1
- GI50 [2]: > 100 µM (inactive)
- GI50 [3]: > 100 µM (inactive)
- GI50 [4]: > 100 µM (inactive)
- GI50 [5]: > 100 µM (inactive)
- GI50 [6]: > 100 µM (inactive)
- GI50 [7]: > 100 µM (inactive)
- GI50 [8]: > 100 µM (inactive)
- GI50 [9]: > 100 µM (inactive)
- GI50 [10]: > 100 µM (inactive)
- GI50 [17]: > 100 µM (inactive)
- GI50 [18]: > 100 µM (inactive)
- GI50 [12]: > 100 µM (inactive)
- GI50 [13]: > 100 µM (inactive)
- GI50 [14]: 7.85 µM (inactive)
- GI50 [15]: > 100 µM (inactive)
- GI50 [16]: 20.4 µM (inactive)

Structure (SMILES): COc1ccc(NC(=O)CC(=O)N/N=C/c2ccc(N(CCC#N)S(=O)(=O)c3ccccc3)cc2)cc1
- GI50 [2]: > 100 µM (inactive)
- GI50 [3]: > 100 µM (inactive)
- GI50 [4]: > 100 µM (inactive)
- GI50 [5]: > 100 µM (inactive)
- GI50 [6]: > 100 µM (inactive)
- GI50 [7]: > 100 µM (inactive)
- GI50 [8]: > 100 µM (inactive)
- GI50 [9]: > 100 µM (inactive)
- GI50 [10]: > 100 µM (inactive)
- GI50 [17]: > 100 µM (inactive)
- GI50 [18]: > 100 µM (inactive)
- GI50 [12]: > 100 µM (inactive)
- GI50 [14]: > 10 µM (inactive)
- GI50 [15]: > 100 µM (inactive)
- GI50 [16]: > 100 µM (inactive)

Structure (SMILES): OC1C2C=CCC1CCC2 (stereo not drawn)
- GI50 [1]: > 100 µM (inactive)
- GI50 [2]: > 100 µM (inactive)
- GI50 [3]: > 100 µM (inactive)
- GI50 [4]: > 100 µM (inactive)
- GI50 [6]: > 100 µM (inactive)
- GI50 [7]: > 100 µM (inactive)
- GI50 [8]: > 100 µM (inactive)
- GI50 [9]: > 100 µM (inactive)
- GI50 [10]: > 100 µM (inactive)
- GI50 [17]: > 100 µM (inactive)
- GI50 [18]: > 100 µM (inactive)
- GI50 [11]: > 100 µM (inactive)
- GI50 [12]: > 100 µM (inactive)
- GI50 [13]: > 100 µM (inactive)
- GI50 [14]: > 100 µM (inactive)
- GI50 [15]: > 100 µM (inactive)
- GI50 [16]: > 100 µM (inactive)

Structure (SMILES): COC(=O)CC(C(C(=O)OCc1ccccc1)C(C)O)N1C(=O)OC(c2ccccc2)C1c1ccccc1 (stereo not drawn)
- GI50 [1]: > 100 µM (inactive)
- GI50 [2]: 95.5 µM (inactive)
- GI50 [3]: > 100 µM (inactive)
- GI50 [4]: > 100 µM (inactive)
- GI50 [5]: > 100 µM (inactive)
- GI50 [6]: > 100 µM (inactive)
- GI50 [7]: > 100 µM (inactive)
- GI50 [9]: > 100 µM (inactive)
- GI50 [10]: > 100 µM (inactive)
- GI50 [18]: 62.7 µM (inactive)
- GI50 [11]: > 100 µM (inactive)
- GI50 [12]: 74 µM (inactive)
- GI50 [13]: > 100 µM (inactive)
- GI50 [15]: > 100 µM (inactive)
- GI50 [16]: 52 µM (inactive)

Structure (SMILES): COC(=O)CC(=O)C[P+](c1ccccc1)(c1ccccc1)c1ccccc1
- GI50 [2]: 197 µM (inactive)
- GI50 [3]: 55.3 µM (inactive)
- GI50 [4]: > 218 µM (inactive)
- GI50 [5]: > 218 µM (inactive)
- GI50 [6]: 60.7 µM (inactive)
- GI50 [7]: 48.9 µM (inactive)
- GI50 [8]: > 218 µM (inactive)
- GI50 [10]: 69.7 µM (inactive)
- GI50 [18]: 63.5 µM (inactive)
- GI50 [11]: > 218 µM (inactive)
- GI50 [12]: 158 µM (inactive)
- GI50 [13]: 95.3 µM (inactive)
- GI50 [15]: 114 µM (inactive)
- GI50 [16]: 178 µM (inactive)
